Reference: patent US9221765B2, “Inhibition and dispersion of bacterial biofilms with benzimidazole derivatives” (North Carolina State University, priority 2009, dated 2015)
Where a name gives a salt, the structure may show the parent alone. Read-outs that look alike come from different tables or passages of the source.

Tests used:
MRSA [1] = experiment: Inhibition of MRSA biofilm formation (crystal violet); type: cell-based, Staphylococcus aureus; conditions: for IC50: concentration that inhibits 50% biofilm development; for ability to inhibit biofilm formation: 100 μM (highest concentration tested)
Method: (§1) A dose-response study was then initiated in which both the IC50 and EC50 value of each compound towards the bacterial strains were determined (Table 1). Here, IC50 is defined as the concentration of compound that inhibits 50% biofilm development while EC50 is defined as the concentration of compound that disperses 50% of a pre-formed biofilm.
(§2) Procedure to Determine the Inhibitory Effect of Test Compounds on E. faecium, MRSA, S. epidermidis, PAO1 and MDRAB Biofilm Formation:
(§3) Inhibition assays were performed by taking an overnight culture of bacterial strain and subculturing it at an OD600 of 0.01 into the necessary media (brain heart infusion for E. faecium, tryptic soy broth with a 0.5% glucose supplement (TSBG) for MRSA, Luria-Bertani (LB) media for MDRAB, Luria-Bertani media without NaCl (LBNS) for PAO1 and tryptic soy broth with a 0.5% glucose supplement and a 3.0% NaCl supplement (TGN) for S. epidermidis. Stock solutions of predetermined concentrations of the test compound were then made in the necessary media. These stock solutions were aliquoted (100 μL) into the wells of the 96-well PVC microtiter plate. Sample plates were then wrapped in GLAD Press n′ Seal® followed by an incubation under stationary conditions for 24 h at 37° C. After incubation, the media was discarded from the wells and the plates were washed thoroughly with water. Plates were then stained with 100 μL of 0.1% solution of crystal violet (CV) and then incubated at ambient temperature for 30 min. Plates were washed with water again and the remaining stain was solubilized with 200 μL of 95% ethanol. A sample of 125 μL of solubilized CV stain from each well was transferred to the corresponding wells of a polystyrene microtiter dish. Biofilm inhibition was quantitated by measuring the OD540 of each well in which a negative control lane wherein no biofilm was formed served as a background and was subtracted out.
as §3, with “2-(2-amino-1H-benzo[d]imidazol-6-ylcarbamoyl)-3,4,5,6-tetrachlorobenzoic acid hydrochloride” for “test compound”, “media. Samples were then doped with 10.0 μM FeSO4 with samples with no test compound to examine effects of 10.0 μM FeSO4 on biofilm formation.” for “media.”

S. epidermidis [2] = experiment: Dispersion of preformed S. epidermidis biofilm; type: cell-based, Staphylococcus epidermidis; conditions: concentration that disperses 50% of a pre-formed biofilm
Method: as §1
(§4) Procedure to Determine the Dispersal Effect of Test Compounds on E. faecium, MRSA and S. epidermidis Preformed Biofilms:
(§5) Dispersion assays were performed by taking an overnight culture of bacterial strain and subculturing it at an OD600 of 0.01 into the necessary media (brain heart infusion for E. faecium, tryptic soy broth with a 0.5% glucose supplement (TSBG) for MRSA and tryptic soy broth with a 0.5% glucose supplement and a 3.0% NaCl supplement (TGN) for S. epidermidis. The resulting bacterial suspension was aliquoted (100 μL) into the wells of a 96-well PVC microtiter plate. Plates were then wrapped in GLAD Press n′ Seal® followed by an incubation under stationary conditions at ambient temperature to establish the biofilms. After 24 h, the media was discarded from the wells and the plates were washed thoroughly with water. Stock solutions of predetermined concentrations of the test compound were then made in the necessary media. These stock solutions were aliquoted (100 μL) into the wells of the 96-well PVC microtiter plate with the established biofilms. Media alone was added to a subset of the wells to serve as a control. Sample Plates were then incubated for 24 h at 37° C. After incubation, the media was discarded from the wells and the plates were washed thoroughly with water. Plates were then stained with 100 μL of 0.1% solution of crystal violet (CV) and then incubated at ambient temperature for 30 min. Plates were washed with water again and the remaining stain was solubilized with 200 μL of 95% ethanol. A sample of 125 μL of solubilized CV stain from each well was transferred to the corresponding wells of a polystyrene microtiter dish. Biofilm dispersion was quantitated by measuring the OD540 of each well in which a negative control lane wherein no biofilm was formed served as a background and was subtracted out.

[3] = tested on: vancomycin-resistant Enterococcus faecium (VRE); experiment: Dispersion of preformed VRE (E. faecium) biofilm; type: cell-based; conditions: concentration that disperses 50% of a pre-formed biofilm
Method: as §1, §4, §5

MRSA [4] = experiment: Dispersion of preformed MRSA biofilm; type: cell-based, Staphylococcus aureus; conditions: concentration that disperses 50% of a pre-formed biofilm
Method: as §1, §4, §5

[5] = tested on: vancomycin-resistant Enterococcus faecium (VRE); experiment: Inhibition of VRE (E. faecium) biofilm formation (crystal violet); type: cell-based; conditions: for ability to inhibit biofilm formation: 100 μM (highest concentration tested)
Method: as §1, §2, §3
as §3, with “2-(2-amino-1H-benzo[d]imidazol-6-ylcarbamoyl)-3,4,5,6-tetrachlorobenzoic acid hydrochloride” for “test compound”, “media. Samples were then doped with 10.0 μM FeSO4 with samples with no test compound to examine effects of 10.0 μM FeSO4 on biofilm formation.” for “media.”

S. epidermidis [6] = experiment: Inhibition of S. epidermidis biofilm formation (crystal violet); type: cell-based, Staphylococcus epidermidis; conditions: for IC50: concentration that inhibits 50% biofilm development; for ability to inhibit biofilm formation: 100 μM (highest concentration tested)
Method: as §1, §2, §3
as §3, with “2-(2-amino-1H-benzo[d]imidazol-6-ylcarbamoyl)-3,4,5,6-tetrachlorobenzoic acid hydrochloride” for “test compound”, “media. Samples were then doped with 10.0 μM FeSO4 with samples with no test compound to examine effects of 10.0 μM FeSO4 on biofilm formation.” for “media.”

[7] = Divalent zinc binding via 1H NMR spectroscopy; conditions: 0, 0.5, 1.0 equivalents ZnCl2; DMSO
Method: Given this Zn(II)-dependence, the ability of 3 to bind zinc directly was determined to ascertain if the mechanism was potentially occurring via a Zn(II)-binding mechanism. To answer this question, an ^1H NMR binding experiment was performed in which the chemical shifts of 3 were measured in the presence of 0 equivalents, 0.5 equivalents, and 1.0 equivalents ZnCl2. […] As a control, the same experiment was performed with FeSO4.
Procedure to Determine the Divalent Zinc Binding Effects of Test Compounds via ^1H NMR Spectroscopy:
^1H NMR Spectra were obtained of the test compounds in DMSO on a 400 MHz NMR in the absence and in the presence of one equivalent of ZnCl2. 2-(2-amino-1H-benzo[d]imidazol-5-ylcarbamoyl)-3,4,5,6-tetrachlorobenzoic acid hydrochloride was tested at a 228 mM. 2,3,4,5-tetrachloro-6-(phenylcarbamoyl)benzoic acid was tested at 275 mM. 1H-benzo[d]imidazol-2-amine hydrochloride was tested at 649 mM.

[8] = tested on: E. faecium, MRSA and S. epidermidis; experiment: Mitigating effects of zinc on biofilm formation inhibition; type: cell-based; conditions: 200.0 μM ZnCl2 alone, no test compound
Excerpt: Next, Zn(II) homeostasis was examined. Zn(II) has been implicated in the pathogenesis of Gram-positive bacterial infections and may be an important regulator of biofilm formation (Conrady, D. G.; Brescia, C. C.; Horii, K.; Weiss, A. A.; Hassett, D. J.; Herr, A. B. Proceedings of the National Academy of Sciences of the United States of America 2008, 105, 19456-19461).
Procedure to Determine the Mitigating Effects of Zinc on E. faecium, MRSA and S. epidermidis Biofilm Formation Inhibition Induced by 2-(2-Amino-1H-Benzo[d]Imidazol-6-Ylcarbamoyl)-3,4,5,6-Tetrachlorobenzoic Acid Hydrochloride:
as §3, with “50.0 μM 2-(2-amino-1H-benzo[d]imidazol-6-ylcarbamoyl)-3,4,5,6-tetrachlorobenzoic acid hydrochloride” for “predetermined concentrations of the test compound”, “media. Samples were then doped with 25.0, 50.0, 75.0, 100.0, 150.0 and 200.0 μM ZnCl2 with controls in which no test compound was added to examine effects of 200.0 μM ZnCl2 on biofilm formation.” for “media.”

MRSA [9] = experiment: Inhibition of MRSA biofilm formation (crystal violet); type: cell-based, Staphylococcus aureus; conditions: FeSO4 alone, no test compound
[10] = VRE, concentration that inhibits 50% biofilm development, read-out: IC50

Row | IC50 (MRSA [1]; read-out: IC50) [µM] | EC50 (S. epidermidis [2]) [µM] | EC50 ([3]; read-out: EC50 (converted)) [µM] | EC50 (MRSA [4]; read-out: EC50 (converted)) [µM] | IC50 [5, 10] [µM] | IC50 (S. epidermidis [6]) [µM] | Compound | further results
1 | – | – | – | – | – | – | Nc1nc2ccc(NC(=O)[C@@H]3C4C=CC(C4)[C@@H]3C(=O)O)cc2[nH]1 (stereo partly drawn) [Compound 5, (2S,3R)-3-(2-amino-1H-benzo[d]imidazol-6-ylcarbamoyl)bicyclo[2.2.1]hept-5-ene-2-carboxylic acid hydrochloride] | IC50 (MRSA [1]; Staphylococcus aureus): 16 ± 2.9 µM; EC50 (S. epidermidis [2]; Staphylococcus epidermidis): 45 µM; EC50 [3]: 107 µM; EC50 (MRSA [4]; Staphylococcus aureus): 63 µM; IC50 [5]: 63 ± 9.1 µM; IC50 (S. epidermidis [6]; Staphylococcus epidermidis): 4.1 ± 2 µM
2 | – | – | – | – | – | – | Nc1nc2ccccc2[nH]1 [Compound 17, reference compound] | ability to inhibit biofilm formation (MRSA [1]): Neither compound was able to inhibit; zinc binding, change of 1H NMR signals [7]: no change; ability to inhibit biofilm formation ([5]; VRE): Neither compound was able to inhibit; ability to inhibit biofilm formation (S. epidermidis [6]): Neither compound was able to inhibit
3 | > 300 | 81 | 110 | > 300 | 69 ± 10 | 24 ± 6.3 | Nc1nc2ccc(N3C(=O)c4cccc5cccc(c45)C3=O)cc2[nH]1 [Compound 15] | –
4 | – | – | – | – | – | – | O=C(O)c1c(Cl)c(Cl)c(Cl)c(Cl)c1C(=O)Nc1ccccc1 [Compound 18, reference compound] | ability to inhibit biofilm formation (MRSA [1]): Neither compound was able to inhibit; zinc binding, change of 1H NMR signals [7]: no change; ability to inhibit biofilm formation ([5]; VRE): Neither compound was able to inhibit; ability to inhibit biofilm formation (S. epidermidis [6]): Neither compound was able to inhibit
5 | – | – | – | – | – | – | [Cl-].[Cl-].[Zn+2] [ZnCl2, reference compound] | effect on biofilm formation [8]: no effect on biofilm formation
6 | – | – | – | – | – | – | Nc1nc2ccc(NC(=O)c3cccc4cccc(C(=O)O)c34)cc2[nH]1 [Compound 9, 8-(2-amino-1H-benzo[d]imidazol-6-ylcarbamoyl)-1-naphthoic acid hydrochloride] | IC50 (MRSA [1]; Staphylococcus aureus): > 300 µM; EC50 (S. epidermidis [2]; Staphylococcus epidermidis): 30 µM; EC50 [3]: 6.3 µM; EC50 (MRSA [4]; Staphylococcus aureus): > 300 µM; IC50 [5]: 0.9 ± 0.4 µM; IC50 (S. epidermidis [6]; Staphylococcus epidermidis): 6.2 ± 1.2 µM
7 | 69 ± 2.7 | 260 | 94 | 205 | 0.9 ± 0.3 | 240 ± 20 | CC(C)(CC(=O)O)CC(=O)Nc1ccc2nc(N)[nH]c2c1 [Compound 7] | –
8 | 1.5 ± 0.4 | 19 | 280 | 6.6 | 210 ± 35 | 1.9 ± 0.4 | Nc1nc2ccc(NC(=O)[C@H]3[C@@H](C(=O)O)C4(Cl)C(Cl)=C(Cl)C3(Cl)C4(Cl)Cl)cc2[nH]1 (relative stereo) [Compound 4] | –
9 | 5.7 ± 0.5 | 33 | 31 | 9.5 | 7.4 ± 1.7 | 1.5 ± 0.5 | Nc1nc2ccc(N3C(=O)[C@@H]4[C@H](C3=O)C3(Cl)C(Cl)=C(Cl)C4(Cl)C3(Cl)Cl)cc2[nH]1 [Compound 16] | –
10 | – | – | – | – | – | – | O=S(=O)([O-])[O-].[Fe+2] [FeSO4, reference compound] | increase of biofilm formation (biofilm mass) (MRSA [9]): 1.28 times; increase of biofilm formation (biofilm mass) ([5]; E. faecium, FeSO4 alone, no test compound): 1.37 times; increase of biofilm formation (biofilm mass) (S. epidermidis [6]; FeSO4 alone, no test compound): 1.25 times
11 | 42 ± 2.4 | 180 | 230 | 48 | 1.9 ± 0.5 | 170 ± 14 | Nc1nc2ccc(N3C(=O)CC4(CCC4)CC3=O)cc2[nH]1 [Compound 14] | –
